The source of these data is patent publication US20240246992A1, “MACROCYCLIC LRRK2 KINASE INHIBITORS” (LES LABORATOIRES SERVIER, priority 2021, published 2024).

Each structure is given as a SMILES string. pIC50: −log10 of the molar value.

In the assay the target is human recombinant LRRK2 protein (Homo sapiens, UniProt Q5S007). The assay can be described thus: LRRK2 kinase activity assay (ADP-Glo, LRRKtide peptide). The format is biochemical. The settings on record: human recombinant LRRK2 wt, LRRKtide peptide and ATP, 1 h at 37° C. The method in brief: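 Human recombinant LRRK2 reacted with LRRKtide peptide and ATP for 1 h at 37 °C in the presence of compound. ADP formed measured by ADP-Glo luminescence; IC50 fitted from 10 concentrations run in duplicate.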
Chain of human recombinant LRRK2 protein (Q5S007 whole entry): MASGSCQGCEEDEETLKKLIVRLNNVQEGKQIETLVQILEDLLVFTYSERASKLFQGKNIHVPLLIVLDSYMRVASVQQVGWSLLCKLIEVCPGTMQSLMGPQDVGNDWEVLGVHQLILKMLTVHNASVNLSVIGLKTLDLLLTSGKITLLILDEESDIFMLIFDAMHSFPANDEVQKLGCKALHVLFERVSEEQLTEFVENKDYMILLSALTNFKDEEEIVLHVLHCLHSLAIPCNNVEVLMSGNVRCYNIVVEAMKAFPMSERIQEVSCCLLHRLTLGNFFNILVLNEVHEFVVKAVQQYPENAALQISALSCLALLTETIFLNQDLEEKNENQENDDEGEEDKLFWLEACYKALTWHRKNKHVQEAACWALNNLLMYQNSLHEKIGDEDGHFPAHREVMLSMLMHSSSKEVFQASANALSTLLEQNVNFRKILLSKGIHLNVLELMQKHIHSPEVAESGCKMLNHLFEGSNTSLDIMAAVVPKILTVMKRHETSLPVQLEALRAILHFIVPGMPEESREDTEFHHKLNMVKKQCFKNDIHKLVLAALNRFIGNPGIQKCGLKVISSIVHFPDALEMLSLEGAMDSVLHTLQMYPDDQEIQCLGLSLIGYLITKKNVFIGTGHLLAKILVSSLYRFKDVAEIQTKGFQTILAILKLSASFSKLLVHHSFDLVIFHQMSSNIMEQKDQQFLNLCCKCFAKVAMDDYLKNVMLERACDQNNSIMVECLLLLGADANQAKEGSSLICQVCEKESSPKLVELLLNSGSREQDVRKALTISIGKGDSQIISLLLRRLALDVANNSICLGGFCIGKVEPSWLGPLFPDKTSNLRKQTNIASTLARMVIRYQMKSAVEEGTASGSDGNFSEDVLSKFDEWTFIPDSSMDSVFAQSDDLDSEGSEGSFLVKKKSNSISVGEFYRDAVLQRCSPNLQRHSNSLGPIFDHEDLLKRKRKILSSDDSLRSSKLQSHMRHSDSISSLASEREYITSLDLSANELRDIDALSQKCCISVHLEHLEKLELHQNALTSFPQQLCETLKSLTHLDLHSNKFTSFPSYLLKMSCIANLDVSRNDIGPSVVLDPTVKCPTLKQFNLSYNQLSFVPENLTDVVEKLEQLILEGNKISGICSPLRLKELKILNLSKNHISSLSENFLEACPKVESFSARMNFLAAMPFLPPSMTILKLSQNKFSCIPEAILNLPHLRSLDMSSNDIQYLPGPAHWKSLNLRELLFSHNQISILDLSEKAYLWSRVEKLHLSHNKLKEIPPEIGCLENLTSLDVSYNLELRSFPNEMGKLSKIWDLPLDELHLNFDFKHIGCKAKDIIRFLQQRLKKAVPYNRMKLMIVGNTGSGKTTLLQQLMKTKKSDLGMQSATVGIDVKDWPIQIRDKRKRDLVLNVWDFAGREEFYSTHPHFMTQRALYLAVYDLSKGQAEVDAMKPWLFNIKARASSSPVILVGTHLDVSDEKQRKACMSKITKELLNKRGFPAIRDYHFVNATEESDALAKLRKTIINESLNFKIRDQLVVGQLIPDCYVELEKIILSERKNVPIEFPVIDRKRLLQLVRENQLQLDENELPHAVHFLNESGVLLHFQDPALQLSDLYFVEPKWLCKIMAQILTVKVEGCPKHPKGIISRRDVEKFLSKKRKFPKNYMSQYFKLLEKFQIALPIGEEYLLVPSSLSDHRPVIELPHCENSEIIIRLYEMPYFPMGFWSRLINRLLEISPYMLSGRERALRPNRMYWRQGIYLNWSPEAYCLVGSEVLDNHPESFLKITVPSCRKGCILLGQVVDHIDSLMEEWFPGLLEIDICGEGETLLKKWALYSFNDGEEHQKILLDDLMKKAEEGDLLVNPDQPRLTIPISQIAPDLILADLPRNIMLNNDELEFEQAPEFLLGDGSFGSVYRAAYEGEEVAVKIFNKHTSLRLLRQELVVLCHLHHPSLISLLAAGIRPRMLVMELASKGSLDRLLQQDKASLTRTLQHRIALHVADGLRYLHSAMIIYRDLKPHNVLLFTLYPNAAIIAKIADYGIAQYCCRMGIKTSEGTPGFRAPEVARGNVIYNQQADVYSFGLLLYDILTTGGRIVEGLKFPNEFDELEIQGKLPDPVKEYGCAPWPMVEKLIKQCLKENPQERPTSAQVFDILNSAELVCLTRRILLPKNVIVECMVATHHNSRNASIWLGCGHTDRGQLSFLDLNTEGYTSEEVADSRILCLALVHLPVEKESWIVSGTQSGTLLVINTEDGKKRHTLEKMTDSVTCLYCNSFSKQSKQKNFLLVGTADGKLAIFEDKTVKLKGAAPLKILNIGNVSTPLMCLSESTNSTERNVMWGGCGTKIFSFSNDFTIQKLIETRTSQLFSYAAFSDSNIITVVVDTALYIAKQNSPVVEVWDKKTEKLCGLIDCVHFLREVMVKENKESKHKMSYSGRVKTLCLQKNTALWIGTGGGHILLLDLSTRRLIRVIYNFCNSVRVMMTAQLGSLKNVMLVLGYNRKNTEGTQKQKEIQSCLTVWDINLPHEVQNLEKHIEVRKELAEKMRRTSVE
For `Cc1ccc2cc1OCC(=O)NCCCOc1ccc3[nH]nc-2c3c1` [Example 140, 5-methyl-7,14-dioxa-10,19,20-triazatetracyclo[13.5.2.1^2,6.0^18,21] tricosa-1(20),2,4,6(23),15,17,21-heptaen-9-one], the negative logarithm of the IC50 (pIC50) was over 8.00.

For the compound `Cc1ccc2cc1OCCNCCCOc1ccc3[nH]nc-2c3c1` [Example 141, 5-methyl-7,14-dioxa-10,19,20-triazatetracyclo[13.5.2.1^2,6.0^18,21] tricosa-1(20),2,4,6(23),15,17,21-heptaene], the negative-log IC50 (pIC50) is over 8.00.

Take `O=C1COc2cc(Cl)cc(c2)-c2n[nH]c3ccc(cc23)OCCCN1` [Example 142, 4-chloro-7,14-dioxa-10,19,20-triazatetracyclo[13.5.2.1^2,6.0^18,21]tricosa-1(20),2,4,6(23),15,17,21-heptaen-9-one]: the negative logarithm of the IC50 (pIC50) is over 8.00.

On to `Clc1cc2cc(c1)-c1n[nH]c3ccc(cc13)OCCCNCCO2` [Example 143, 4-chloro-7,14-dioxa-10,19,20-triazatetracyclo[13.5.2.1^2,6.0^18,21]tricosa-1(20),2,4,6(23),15,17,21-heptaene], for which the negative-log IC50 (pIC50) is over 8.00.

As for `Cc1cc2cc(c1)-c1n[nH]c3ccc(cc13)OCCCNC(=O)CO2` [Example 144, 4-methyl-7,14-dioxa-10,19,20-triazatetracyclo[13.5.2.1^2,6.0^18,21]tricosa-1(20),2(23),3,5,15,17,21-heptaen-9-one], the pIC50 was over 8.00.

With `Cc1cc2cc(c1)-c1n[nH]c3ccc(cc13)OCCCNCCO2` [Example 145, 4-methyl-7,14-dioxa-10,19,20-triazatetracyclo[13.5.2.1^2,6.0^18,21]tricosa-1(20),2(23),3,5,15,17,21-heptaene], the pIC50 is over 8.00.

Turning to `O=C1COc2cc(cc(C3CCOCC3)c2)-c2n[nH]c3ccc(cc23)OCCCN1` [Example 146, 4-(oxan-4-yl)-7,14-dioxa-10,19,20-triazatetracyclo[13.5.2.1^2,6.0^18,21]tricosa-1(20),2(23),3,5,15,17,21-heptaen-9-one], the negative logarithm of the IC50 (pIC50) was over 8.00.

As for `c1cc2[nH]nc3c2cc1OCCCNCCOc1cc-3cc(C2CCOCC2)c1` [Example 147, 4-(oxan-4-yl)-7,14-dioxa-10,19,20-triazatetracyclo[13.5.2.1^2,6.0^18,21]tricosa-1(20),2(23),3,5,15,17,21-heptaene], the negative logarithm of the IC50 (pIC50) is over 8.00.

Turning to `O=C1COc2cc(cc(C3CCCOC3)c2)-c2n[nH]c3ccc(cc23)OCCCN1` (centres unmarked) [Example 148, 4-(oxan-3-yl)-7,14-dioxa-10,19,20-triazatetracyclo[13.5.2.1^2,6.0^18,21]tricosa-1(20),2(23),3,5,15,17,21-heptaen-9-one], the pIC50 was over 8.00.

With `c1cc2[nH]nc3c2cc1OCCCNCCOc1cc-3cc(C2CCCOC2)c1` (centres unmarked) [Example 149, 4-(oxan-3-yl)-7,14-dioxa-10,19,20-triazatetracyclo[13.5.2.1^2,6.0^18,21]tricosa-1(20),2(23),3,5,15,17,21-heptaene], the pIC50 was over 8.00.

Regarding `O=C1COc2cccc(c2)-c2n[nH]c3ccc(cc23)OCCC(CF)N1` (centres unmarked) [Example 154, 11-(fluoromethyl)-7,14-dioxa-10,19,20-triazatetracyclo [13.5.2.1^2,6.0^18,21]tricosa-1(20),2,4,6(23),15,17,21-heptaen-9-one], the pIC50 was over 7.00.

Turning to `FCC1CCOc2ccc3[nH]nc(c3c2)-c2cccc(c2)OCCN1` (centres unmarked) [Example 155, 11-(fluoromethyl)-7,14-dioxa-10,19,20-triazatetracyclo [13.5.2.1^2,6.0^18,21]tricosa-1(20),2,4,6(23),15,17,21-heptaene], the negative logarithm of the IC50 (pIC50) was over 7.00.

Turning to `O=C1NCCCOc2ccc3[nH]nc(c3c2)-c2cncc(c2)OC12CC2` [Example 156, 7′,14′-dioxa-4′,10′,19′,20′-tetraazaspiro[cyclopropane-1,8′-tetracyclo[13.5.2.1^2,6.0^18,21]tricosane]-1′(20′),2′(23′),3′,5′,15′,17′,21′-heptaen-9′-one], the negative-log IC50 (pIC50) is over 7.00.

As to `c1cc2[nH]nc3c2cc1OCCCNCC1(CC1)Oc1cncc-3c1` [Example 157, 7′,14′-dioxa-4′,10′,19′,20′-tetraazaspiro[cyclopropane-1,8′-tetracyclo[13.5.2.1^2,6.0^18,21]tricosane]-1′(20′),2′(23′),3′,5′,15′,17′,21′-heptaene], the pIC50 was over 8.00.

For `CC1CCNC(=O)COc2cncc(c2)-c2n[nH]c3ccc(cc23)O1` (centres unmarked) [Example 158, 13-methyl-7,14-dioxa-4,10,19,20-tetraazatetracyclo[13.5.2.1^2,6.0^18,21]tricosa-1(20),2,4,6(23),15,17,21-heptaen-9-one], the pIC50 is over 7.00.

As for `CC1CCNCCOc2cncc(c2)-c2n[nH]c3ccc(cc23)O1` (centres unmarked) [Example 159, 13-methyl-7,14-dioxa-4,10,19,20-tetraazatetracyclo[13.5.2.1^2,6.0^18,21]tricosa-1(20),2,4,6(23),15,17,21-heptaene], the negative-log IC50 (pIC50) was over 8.00.

Consider `CC1Oc2cncc(c2)-c2n[nH]c3ccc(cc23)OCCCN(C)C1=O` (centres unmarked) [Example 160, 8,10-dimethyl-7,14-dioxa-4,10,19,20-tetraazatetracyclo [13.5.2.1^2,6.0^18,21]tricosa-1(20),2,4,6(23),15,17,21-heptaen-9-one], for which the pIC50 was over 7.00.

Regarding `CC1CN(C)CCCOc2ccc3[nH]nc(c3c2)-c2cncc(c2)O1` (centres unmarked) [Example 161, 8,10-dimethyl-7,14-dioxa-4,10,19,20-tetraazatetracyclo [13.5.2.1^2,6.0^18,21]tricosa-1(20),2,4,6(23),15,17,21-heptaene], the pIC50 was over 7.00.

For `C[C@@H]1CCNC(=O)COc2cncc(c2)-c2n[nH]c3ccc(cc23)O1` [Example 162, (13R)-13-methyl-7,14-dioxa-4,10,19,20-tetraazatetracyclo[13.5.2.1^2,6.0^18,21]tricosa-1(20),2,4,6(23),15(22),16,18(21)-heptaen-9-one], the pIC50 was over 7.00.

`C[C@@H]1CCNCCOc2cncc(c2)-c2n[nH]c3ccc(cc23)O1` [Example 163, (13R)-13-methyl-7,14-dioxa-4,10,19,20-tetraazatetracyclo[13.5.2.1^2,6.0^18,21]tricosa-1(20),2,4,6(23),15(22),16,18(21)-heptaene]: the negative-log IC50 (pIC50) was over 8.00.

In the case of `O=C1NCCCOc2ccc3[nH]nc(c3c2)-c2cccc(c2)[C@H]2C[C@H]12` [Example 164, (7S,9S)-15-oxa-11,20,21-triazapentacyclo[14.5.2.1^2,6.0^7,9.0^19,22] tetracosa-1(21),2(24),3,5,16(23),17,19(22)-heptaen-10-one], the pIC50 is over 7.00.

Turning to `c1cc2cc(c1)[C@H]1C[C@@H]1CNCCCOc1ccc3[nH]nc-2c3c1` [Example 165, (7S,9S)-15-oxa-11,20,21-triazapentacyclo[14.5.2.1^2,6.0^7,9.0^19,22]tetracosa-1(21),2(24),3,5,16(23),17,19(22)-heptaene], the negative logarithm of the IC50 (pIC50) was over 6.00.

Turning to `O=C1CCc2cccc(c2)-c2n[nH]c3ccc(cc23)OCCCN1` [Example 166, 14-oxa-10,19,20-triazatetracyclo[13.5.2.1^2,6.0^18,21]tricosa-1(20),2(23),3,5,15(22),16,18(21)-heptaen-9-one], the pIC50 is over 8.00.

`c1cc2cc(c1)-c1n[nH]c3ccc(cc13)OCCCNCCC2` [Example 167, 14-oxa-10,19,20-triazatetracyclo[13.5.2.1^2,6.0^18,21]tricosa-1(20),2(23),3,5,15(22),16,18(21)-heptaene]: the negative-log IC50 (pIC50) is over 8.00.

Consider `C[C@@H]1COc2ccc3[nH]nc(c3c2)-c2cccc(c2)OCC(=O)N[C@H]1C` [Example 168, (11S,12S)-11,12-dimethyl-7,14-dioxa-10,19,20-triazatetracyclo[13.5.2.1^2,6.0^18,21]tricosa-1(20),2(23),3,5,15(22),16,18(21)-heptaen-9-one], for which the negative-log IC50 (pIC50) was over 7.00.

`C[C@@H]1COc2ccc3[nH]nc(c3c2)-c2cccc(c2)OCCN[C@H]1C` [Example 169, (11S,12S)-11,12-dimethyl-7,14-dioxa-10,19,20-triazatetracyclo[13.5.2.1^2,6.0^18,21]tricosa-1(20),2(23),3,5,15(22),16,18(21)-heptaene]: the pIC50 was over 7.00.

On to `COC1CNC(=O)COc2cccc(c2)-c2n[nH]c3ccc(cc23)OC1` (centres unmarked) [Example 170, 12-methoxy-7,14-dioxa-10,19,20-triazatetracyclo[13.5.2.1^2,6.0^18,21]tricosa-1(20),2(23),3,5,15,17,21-heptaen-9-one], for which the pIC50 was over 7.00.

For `COC1CNCCOc2cccc(c2)-c2n[nH]c3ccc(cc23)OC1` (centres unmarked) [Example 171, 12-methoxy-7,14-dioxa-10,19,20-triazatetracyclo[13.5.2.1^2,6.0^18,21]tricosa-1(20),2(23),3,5,15,17,21-heptaene], the pIC50 is over 7.00.

`C[C@@H]1CCNC(=O)COc2cc(cc(N3CCOCC3)c2)-c2n[nH]c3ccc(cc23)O1` [Example 172, (13R)-13-methyl-4-(morpholin-4-yl)-7,14-dioxa-10,19,20-triazatetracyclo[13.5.2.1^2,6.0^18,21]tricosa-1(20),2(23),3,5,15,17,21-heptaen-9-one]: the negative-log IC50 (pIC50) is over 8.00.

`C[C@@H]1CCNCCOc2cc(cc(N3CCOCC3)c2)-c2n[nH]c3ccc(cc23)O1` [Example 173, (13R)-13-methyl-4-(morpholin-4-yl)-7,14-dioxa-10,19,20-triazatetracyclo[13.5.2.1^2,6.0^18,21]tricosa-1(20),2(23),3,5,15,17,21-heptaene]: the negative-log IC50 (pIC50) was over 8.00.

With `C[C@H]1CCNC(=O)COc2cc(cc(N3CCOCC3)c2)-c2n[nH]c3ccc(cc23)O1` [Example 174, (13S)-13-methyl-4-(morpholin-4-yl)-7,14-dioxa-10,19,20-triazatetracyclo[13.5.2.1^2,6.0^18,21]tricosa-1(20),2(23),3,5,15,17,21-heptaen-9-one], the pIC50 is over 8.00.

`C[C@H]1CCNCCOc2cc(cc(N3CCOCC3)c2)-c2n[nH]c3ccc(cc23)O1` [Example 175, (13S)-13-methyl-4-(morpholin-4-yl)-7,14-dioxa-10,19,20-triazatetracyclo[13.5.2.1^2,6.0^18,21]tricosa-1(20),2(23),3,5,15,17,21-heptaene]: the pIC50 was over 8.00.
